Experiment: mn = molality of the nth substance listed, in mol/kg
Details: 101.3 kPa, Liquid; for speed of sound: Sing-around technique in a fixed-path interferometer; for mass density: Vibrating tube method

CCOC(=O)CC(=O)[O-].[K+] [potassium 3-ethoxy-3-oxopropanoate] + O
Details | mass density [kg/m3] | speed of sound [m/s]
288.15 K, m1 = 0.0116 | 999.92 | 1468.2
288.15 K, m1 = 0.0175 | 1000.34 | 1469
288.15 K, m1 = 0.0352 | 1001.57 | 1471.2
288.15 K, m1 = 0.0453 | 1002.29 | 1472.6
288.15 K, m1 = 0.0579 | 1003.14 | 1474.2
288.15 K, m1 = 0.1204 | 1007.45 | 1482.2
288.15 K, m1 = 0.18 | 1011.47 | 1489.7
288.15 K, m1 = 0.2369 | 1015.22 | 1496.6
288.15 K, m1 = 0.3076 | 1019.83 | 1505.1
293.15 K, m1 = 0.0116 | 999.013 | 1484.1
293.15 K, m1 = 0.0175 | 999.423 | 1484.9
293.15 K, m1 = 0.0352 | 1000.64 | 1487
293.15 K, m1 = 0.0453 | 1001.35 | 1488.3
293.15 K, m1 = 0.0579 | 1002.19 | 1489.8
293.15 K, m1 = 0.1204 | 1006.44 | 1497.2
293.15 K, m1 = 0.18 | 1010.41 | 1504.2
293.15 K, m1 = 0.2369 | 1014.11 | 1510.6
293.15 K, m1 = 0.3076 | 1018.65 | 1518.7
298.15 K, m1 = 0.0116 | 997.84 | 1498.2
298.15 K, m1 = 0.0175 | 998.247 | 1499
298.15 K, m1 = 0.0352 | 999.442 | 1500.9
298.15 K, m1 = 0.0453 | 1000.15 | 1502.1
298.15 K, m1 = 0.0579 | 1000.98 | 1503.5
298.15 K, m1 = 0.1204 | 1005.18 | 1510.4
298.15 K, m1 = 0.18 | 1009.1 | 1516.9
298.15 K, m1 = 0.2369 | 1012.76 | 1523
298.15 K, m1 = 0.3076 | 1017.25 | 1530.5
303.15 K, m1 = 0.0116 | 996.433 | 1510.5
303.15 K, m1 = 0.0175 | 996.835 | 1511.2
303.15 K, m1 = 0.0352 | 998.02 | 1513
303.15 K, m1 = 0.0453 | 998.716 | 1514.1
303.15 K, m1 = 0.0579 | 999.538 | 1515.4
303.15 K, m1 = 0.1204 | 1003.7 | 1521.9
303.15 K, m1 = 0.18 | 1007.58 | 1528
303.15 K, m1 = 0.2369 | 1011.19 | 1533.6
303.15 K, m1 = 0.3076 | 1015.64 | 1540.6
308.15 K, m1 = 0.0116 | 994.811 | 1521
308.15 K, m1 = 0.0175 | 995.206 | 1521.7
308.15 K, m1 = 0.0352 | 996.379 | 1523.4
308.15 K, m1 = 0.0453 | 997.071 | 1524.4
308.15 K, m1 = 0.0579 | 997.885 | 1525.7
308.15 K, m1 = 0.1204 | 1002 | 1531.8
308.15 K, m1 = 0.18 | 1005.85 | 1537.4
308.15 K, m1 = 0.2369 | 1009.43 | 1542.7
308.15 K, m1 = 0.3076 | 1013.83 | 1549.1
313.15 K, m1 = 0.0116 | 992.986 | 1530
313.15 K, m1 = 0.0175 | 993.379 | 1530.7
313.15 K, m1 = 0.0352 | 994.542 | 1532.2
313.15 K, m1 = 0.0453 | 995.228 | 1533.2
313.15 K, m1 = 0.0579 | 996.034 | 1534.4
313.15 K, m1 = 0.1204 | 1000.12 | 1540.1
313.15 K, m1 = 0.18 | 1003.93 | 1545.4
313.15 K, m1 = 0.2369 | 1007.47 | 1550.3
313.15 K, m1 = 0.3076 | 1011.84 | 1556.3

COC(=O)CC(=O)[O-].[K+] [potassium 3-methoxy-3-oxopropanoate] + O
Details | mass density [kg/m3] | speed of sound [m/s]
288.15 K, m1 = 0.0128 | 1000.03 | 1468.1
288.15 K, m1 = 0.0148 | 1000.18 | 1468.3
288.15 K, m1 = 0.0189 | 1000.47 | 1468.8
288.15 K, m1 = 0.0253 | 1000.94 | 1469.6
288.15 K, m1 = 0.0316 | 1001.39 | 1470.3
288.15 K, m1 = 0.0444 | 1002.3 | 1471.8
288.15 K, m1 = 0.0512 | 1002.81 | 1472.4
288.15 K, m1 = 0.0637 | 1003.7 | 1474
288.15 K, m1 = 0.0836 | 1005.11 | 1476
288.15 K, m1 = 0.1286 | 1008.32 | 1481.1
288.15 K, m1 = 0.1868 | 1012.39 | 1487.4
288.15 K, m1 = 0.2644 | 1017.68 | 1495.4
288.15 K, m1 = 0.3285 | 1022.02 | 1502.2
288.15 K, m1 = 0.3591 | 1024 | 1505
293.15 K, m1 = 0.0128 | 999.122 | 1484
293.15 K, m1 = 0.0148 | 999.272 | 1484.2
293.15 K, m1 = 0.0189 | 999.553 | 1484.7
293.15 K, m1 = 0.0253 | 1000.02 | 1485.4
293.15 K, m1 = 0.0316 | 1000.47 | 1486.1
293.15 K, m1 = 0.0444 | 1001.37 | 1487.4
293.15 K, m1 = 0.0512 | 1001.87 | 1488.2
293.15 K, m1 = 0.0637 | 1002.74 | 1489.5
293.15 K, m1 = 0.0836 | 1004.14 | 1491.5
293.15 K, m1 = 0.1286 | 1007.31 | 1496.2
293.15 K, m1 = 0.1868 | 1011.34 | 1502
293.15 K, m1 = 0.2644 | 1016.57 | 1509.6
293.15 K, m1 = 0.3285 | 1020.84 | 1516.1
293.15 K, m1 = 0.3591 | 1022.81 | 1518.6
298.15 K, m1 = 0.0128 | 997.951 | 1498.1
298.15 K, m1 = 0.0148 | 998.099 | 1498.4
298.15 K, m1 = 0.0189 | 998.377 | 1498.8
298.15 K, m1 = 0.0253 | 998.84 | 1499.4
298.15 K, m1 = 0.0316 | 999.281 | 1500.1
298.15 K, m1 = 0.0444 | 1000.17 | 1501.3
298.15 K, m1 = 0.0512 | 1000.67 | 1502
298.15 K, m1 = 0.0637 | 1001.53 | 1503.3
298.15 K, m1 = 0.0836 | 1002.91 | 1505.1
298.15 K, m1 = 0.1286 | 1006.05 | 1509.5
298.15 K, m1 = 0.1868 | 1010.04 | 1514.9
298.15 K, m1 = 0.2644 | 1015.21 | 1522.1
298.15 K, m1 = 0.3285 | 1019.45 | 1528
298.15 K, m1 = 0.3591 | 1021.39 | 1530.5
303.15 K, m1 = 0.0128 | 996.543 | 1510.4
303.15 K, m1 = 0.0148 | 996.691 | 1510.6
303.15 K, m1 = 0.0189 | 996.967 | 1511
303.15 K, m1 = 0.0253 | 997.423 | 1511.6
303.15 K, m1 = 0.0316 | 997.862 | 1512.2
303.15 K, m1 = 0.0444 | 998.743 | 1513.3
303.15 K, m1 = 0.0512 | 999.236 | 1514
303.15 K, m1 = 0.0637 | 1000.1 | 1515.2
303.15 K, m1 = 0.0836 | 1001.46 | 1517
303.15 K, m1 = 0.1286 | 1004.57 | 1521.1
303.15 K, m1 = 0.1868 | 1008.52 | 1526.2
303.15 K, m1 = 0.2644 | 1013.64 | 1532.9
303.15 K, m1 = 0.3285 | 1017.84 | 1538.5
303.15 K, m1 = 0.3591 | 1019.76 | 1540.8
308.15 K, m1 = 0.0128 | 994.92 | 1520.9
308.15 K, m1 = 0.0148 | 995.066 | 1521.2
308.15 K, m1 = 0.0189 | 995.341 | 1521.5
308.15 K, m1 = 0.0253 | 995.793 | 1522.1
308.15 K, m1 = 0.0316 | 996.226 | 1522.7
308.15 K, m1 = 0.0444 | 997.101 | 1523.7
308.15 K, m1 = 0.0512 | 997.589 | 1524.4
308.15 K, m1 = 0.0637 | 998.449 | 1525.5
308.15 K, m1 = 0.0836 | 999.794 | 1527.1
308.15 K, m1 = 0.1286 | 1002.88 | 1531
308.15 K, m1 = 0.1868 | 1006.79 | 1535.8
308.15 K, m1 = 0.2644 | 1011.88 | 1542.1
308.15 K, m1 = 0.3285 | 1016.04 | 1547.4
308.15 K, m1 = 0.3591 | 1017.95 | 1549.5
313.15 K, m1 = 0.0128 | 993.096 | 1530
313.15 K, m1 = 0.0148 | 993.243 | 1530.2
313.15 K, m1 = 0.0189 | 993.515 | 1530.5
313.15 K, m1 = 0.0253 | 993.962 | 1531.1
313.15 K, m1 = 0.0316 | 994.391 | 1531.6
313.15 K, m1 = 0.0444 | 995.26 | 1532.6
313.15 K, m1 = 0.0512 | 995.745 | 1533.2
313.15 K, m1 = 0.0637 | 996.599 | 1534.3
313.15 K, m1 = 0.0836 | 997.933 | 1535.8
313.15 K, m1 = 0.1286 | 1001 | 1539.5
313.15 K, m1 = 0.1868 | 1004.88 | 1543.9
313.15 K, m1 = 0.2644 | 1009.93 | 1549.9
313.15 K, m1 = 0.3285 | 1014.06 | 1554.9
313.15 K, m1 = 0.3591 | 1015.96 | 1556.8

Reference: the NIST ThermoML archive (doi:10.1016/j.jct.2011.11.014)
